Assay results reported in patent publication US20260000597A1 (priority 2018, published 2026).
pIC50: −log10 of the molar value. Read-outs that look alike come from different tables or passages of the source. Non-standard residues stand in square brackets, D forms with d. Residues, ends and D or L forms follow the SMILES beside them. No end group written: not given here. *: point of attachment. Palmitoyl = CCCCCCCCCCCCCCCC(=O)*; Dab = NCC[C@H](N)C(=O)O; NHBn = c1ccc(CN*)cc1; βAla = NCCC(=O)O

Assays:
[1] = test system: BALB/c mice; type: in vivo
Protocol: Specifically, the DAS values for Palmitoyl-L3-37 in Example 18 were evaluated. […]; and a group treated with a saline solution (sterilized 0.9% NaCl) or 70 μg/kg bungarotoxin as a control group. Then, palmitoyl-L3-37 and the saline solution or bungarotoxin at the concentrations as above were injected each 50 μl into the hind thigh muscles of mice. Thereafter, the mice weight and the sole of the injected portion were observed and recorded every day, and the results are shown in FIGS. 37 to 39.

[2] = test system: TE671 cells
Protocol: To evaluate the toxicity of Spep-1 and Spep-2, WST Assay was performed on TE671 cells.

[3] = target: Acetylcholine receptor proteins (AchR) (Homo sapiens, UniProt P02708); type: binding; details: for AchR binding affinity (resonance units: Ru) among representative peptides: peptides 3 μM
Protocol: Spep-1 to Spep-11 selected in Example 1 were synthesized, and the AchR binding affinity was compared thereamong using a surface plasmon resonance (SPR) analyzer (Biacore3000, Biacore A, Sweden). […]
The treatment concentrations of Spep-2 were 0.12 to 1 μM, and the dissociation constant was compared while Synake was used as a positive control.

[4] = target: T1, AchR (Homo sapiens, UniProt P02708); assay: cell-based; type: cell-based; design: endogenous in cells; host or cells: TE671; details: for AchR inhibitory effect: acetylcholine treatment
Target sequence in this assay (P02708 21-457): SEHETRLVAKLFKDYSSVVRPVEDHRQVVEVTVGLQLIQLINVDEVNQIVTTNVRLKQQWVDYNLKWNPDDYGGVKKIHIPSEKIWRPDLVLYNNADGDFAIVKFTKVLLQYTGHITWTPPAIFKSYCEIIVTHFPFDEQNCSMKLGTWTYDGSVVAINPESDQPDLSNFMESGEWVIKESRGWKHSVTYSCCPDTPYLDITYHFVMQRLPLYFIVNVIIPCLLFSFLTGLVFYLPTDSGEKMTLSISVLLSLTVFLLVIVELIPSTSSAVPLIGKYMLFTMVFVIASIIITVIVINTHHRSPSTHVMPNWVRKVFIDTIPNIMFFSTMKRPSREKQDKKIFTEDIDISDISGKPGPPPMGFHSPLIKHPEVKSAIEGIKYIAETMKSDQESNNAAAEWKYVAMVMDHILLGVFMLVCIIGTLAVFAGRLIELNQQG
Target sequence in this assay (Q07001 22-517, further chain): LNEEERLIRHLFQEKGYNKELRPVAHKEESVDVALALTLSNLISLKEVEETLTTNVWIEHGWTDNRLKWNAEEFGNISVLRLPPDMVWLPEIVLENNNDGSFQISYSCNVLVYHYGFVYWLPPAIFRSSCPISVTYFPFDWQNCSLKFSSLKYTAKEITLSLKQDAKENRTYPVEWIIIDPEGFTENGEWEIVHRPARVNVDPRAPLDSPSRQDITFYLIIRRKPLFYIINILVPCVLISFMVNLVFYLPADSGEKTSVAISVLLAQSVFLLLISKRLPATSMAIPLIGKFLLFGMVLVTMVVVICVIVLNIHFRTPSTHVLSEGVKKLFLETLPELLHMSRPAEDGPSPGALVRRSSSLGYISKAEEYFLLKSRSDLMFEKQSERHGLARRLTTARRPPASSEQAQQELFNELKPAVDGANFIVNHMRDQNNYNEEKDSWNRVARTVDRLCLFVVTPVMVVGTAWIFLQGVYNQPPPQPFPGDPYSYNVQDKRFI
Target sequence in this assay (P07510 23-517, further chain): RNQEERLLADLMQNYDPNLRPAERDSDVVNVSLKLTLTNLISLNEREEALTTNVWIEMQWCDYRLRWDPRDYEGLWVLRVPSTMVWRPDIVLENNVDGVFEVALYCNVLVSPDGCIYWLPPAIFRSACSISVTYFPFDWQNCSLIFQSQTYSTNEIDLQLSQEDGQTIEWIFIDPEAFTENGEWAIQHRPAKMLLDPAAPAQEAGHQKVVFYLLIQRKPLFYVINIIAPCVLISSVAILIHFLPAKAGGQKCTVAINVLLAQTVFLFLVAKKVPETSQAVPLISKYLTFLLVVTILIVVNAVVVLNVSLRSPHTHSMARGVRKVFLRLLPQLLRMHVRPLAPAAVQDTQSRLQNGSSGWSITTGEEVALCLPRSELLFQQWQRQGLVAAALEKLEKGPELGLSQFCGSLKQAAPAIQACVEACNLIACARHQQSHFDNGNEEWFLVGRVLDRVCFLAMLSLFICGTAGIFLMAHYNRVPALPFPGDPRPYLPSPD
Target sequence in this assay (P11230 24-501, further chain): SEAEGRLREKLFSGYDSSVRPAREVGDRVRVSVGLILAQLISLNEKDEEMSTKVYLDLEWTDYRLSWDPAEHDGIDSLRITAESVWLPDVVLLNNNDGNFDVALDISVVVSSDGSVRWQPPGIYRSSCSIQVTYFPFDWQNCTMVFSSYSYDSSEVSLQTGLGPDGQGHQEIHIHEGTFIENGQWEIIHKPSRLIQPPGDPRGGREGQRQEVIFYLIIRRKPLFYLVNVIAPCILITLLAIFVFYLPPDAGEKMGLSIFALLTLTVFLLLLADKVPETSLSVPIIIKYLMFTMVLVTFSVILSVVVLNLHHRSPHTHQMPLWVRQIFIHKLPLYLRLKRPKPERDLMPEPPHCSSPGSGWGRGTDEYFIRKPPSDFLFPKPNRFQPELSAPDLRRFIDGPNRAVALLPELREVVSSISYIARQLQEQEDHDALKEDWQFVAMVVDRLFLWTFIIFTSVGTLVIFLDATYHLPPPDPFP

[5] = target: T1, AchR; assay: ELISA of screened peptide phages on AchR versus streptavidin (OD450); type: binding; details: absorbance at 450 nm
Procedure, shortened: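 Reported as the ratio of AchR to streptavidin OD450, with TMB read-out after HRP anti-M13 detection. Wells coated with 5 μg/ml target overnight at 4 °C and BSA-blocked, then incubated 1 h at 30 °C with helper-rescued phage from individual plaques.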
Target sequence in this assay (P02708 21-457): as the sequence (P02708 21-457) above

[6] = ELISA of selected 11-mer (L2) peptide phages on AchR, Spep-2 positive control
[7] = ELISA of selected 14-mer (L3) peptide phages on AchR, Spep-2 positive control

Sequence of Acetylcholine receptor proteins (AchR) (P02708 21-457): as above

Q: What does the source list for `CCCCCCCCCCCCCCCC(=O)N[C@@H](CO)C(=O)N[C@@H](CC(N)=O)C(=O)N[C@H](C(=O)N[C@@H](CCCCN)C(=O)N[C@@H](CCCNC(=N)N)C(=O)N[C@@H](CCCCN)C(=O)N[C@@H](CCCNC(=N)N)C(=O)NCC(=O)N[C@@H](CCCNC(=N)N)C(=O)N[C@@H](CS)C(=O)N[C@@H](CCCCN)C(=O)N1CCC[C@H]1C(=O)N[C@@H](Cc1ccc(O)cc1)C(=O)N[C@@H](CCCNC(=N)N)C(=O)O)C(C)C` [Palmitoyl-L3-37] (Palmitoyl-SNVKRKRGRCKPYR-OH)?
A: weight of mice ([1]; all groups, 7 days after administration): gradually increased; acute toxicity ([1]; up to 25 mg/kg IM, 7 days): no toxicity was observed

Q: For `CCCCCCCCCCCCCCCC(=O)N[C@@H](Cc1c[nH]c2ccccc12)C(=O)N[C@H](C(=O)N[C@@H](Cc1c[nH]c2ccccc12)C(=O)N[C@@H](CCCCN)C(=O)NCC(=O)N[C@@H](CCCNC(=N)N)C(=O)N[C@@H](CCCCN)C(=O)N[C@@H](CO)C(=O)N[C@@H](CC(C)C)C(=O)N[C@@H](CC(C)C)C(=O)N[C@@H](CCCNC(=N)N)C(=O)O)[C@@H](C)O` [Palmitoyl-Spep-2] (Palmitoyl-WTWKGRKSLLR-OH), which “cytotoxicity (WST assay)” value [2] is on record?
A: The value was “no cytotoxicity”.

Q: For `NCCC(=O)N1CCC[C@H]1C(=O)N[C@@H](CCN)C(=O)NCc1ccccc1` [Synake, reference compound] (H-[βAla]-Pro-[Dab]-NHBn; N-terminus and C-terminus assumed), which “toxicity (WST assay)” value ([2]; TE671 cells, treatment concentration of 100 μM) is on record?
A: Its value is “no toxicity”.

Q: With “L2-110: 11-mer optimized peptide of the L2 library (Table 11, not shown here) (RYAKHRKRQTR; AchR binding peptide) [Peptide L2-110]” as the compound, how does the “AchR binding affinity (resonance units: Ru) among representative peptides” value ([3]; SPR) read?
A: Its value is “higher binding affinity to AchR compared with the 8-mer L1-13”.

Q: And the AchR inhibition ([4]; nicotine 400 μM, peptide 5 μM)?
A: Its AchR inhibition is “could not inhibit”.

Q: What about the OD [5, 6] of the same compound?
A: The OD was 0.831.

Q: How did the “AchR binding affinity (resonance units: Ru) among representative peptides” value ([3]; SPR) turn out when “L3-27: 14-mer optimized peptide of the L3 library (Table 12, not shown here) (RARKKRKSLLRRQV; AchR binding peptide) [Peptide L3-27]” was run?
A: The value was “highest binding affinity”.

Q: And the AchR inhibition ([4]; nicotine 400 μM, peptide 1 μM)?
A: The AchR inhibition was 50%.

Q: What about the AchR inhibition ([4]; nicotine 400 μM, peptide 5 μM) of the same compound?
A: The AchR inhibition was “could not inhibit”.

Q: What about the OD [5, 7] of the same compound?
A: Its OD is 0.83.

Q: Which “AchR binding affinity (resonance units: Ru) among representative peptides” value ([3]; SPR) does the source give for “L3-28: 14-mer optimized peptide of the L3 library (Table 12, not shown here) (PNGKVRKRIRRRYF; AchR binding peptide) [Peptide L3-28]” here?
A: The value was “highest binding affinity”.

Q: And the AchR inhibition ([4]; nicotine 400 μM, peptide 2.5 μM)?
A: The AchR inhibition was “could not inhibit”.

Q: What about the OD [5, 7] of the same compound?
A: Its OD is 0.803.

Q: For “L3-37: 14-mer optimized peptide of the L3 library (Table 12, not shown here) (SNVKRKRGRCKPYR; AchR binding peptide) [Peptide L3-37]”, which “AchR binding affinity (resonance units: Ru) among representative peptides” value ([3]; SPR) is on record?
A: The value was “highest binding affinity”.

Q: And the OD [5, 7]?
A: The OD was 0.69.

Q: Which “toxicity (WST assay)” value [2] does the source give for WTWKGKGTLNR [Spep-1, WTWKGKGTLNR] here?
A: The value was “no toxicity”.

Q: For WTWKGRKSLLR [Spep-2, WTWKGRKSLLR], which AchR binding affinity ([3]; SPR, 10 μM peptides, compared with Synake) is on record?
A: The AchR binding affinity was “high AchR binding affinity compared with Synake”.

Q: What about the “AchR binding affinity superior to that of Synake” value ([3]; from Kd values) of the same compound?
A: Its value is “about 2,000 times”.

Q: What about the pIC50 [4] of the same compound?
A: The pIC50 was 6.12.

Q: What about the AchR inhibitory effect ([4]; peptide 0.5 μM, TE671 cells) of the same compound?
A: The AchR inhibitory effect was 90%.

Q: And the AchR inhibitory effect ([4]; peptide 5 μM, TE671 cells)?
A: Its AchR inhibitory effect is 100%.

Q: And the AchR inhibitory rate ([4]; nicotine 400 μM, peptide 20 μM, TE671 cells)?
A: Its AchR inhibitory rate is “about 10%”.

Q: And the AchR inhibition ([4]; nicotine 400 μM, peptide 70 μM)?
A: Its AchR inhibition is “could not inhibit”.

Q: And the AchR inhibition ([4]; nicotine 400 μM, peptide 80 μM)?
A: The AchR inhibition was 100%.

Q: What about the “nicotinic acetylcholine receptor inhibitory effects” value ([4]; nicotine treatment, compared with Synake, TE671 cells) of the same compound?
A: Its value is “excellent nicotinic acetylcholine receptor inhibitory effects”.

Q: And the “toxicity (WST assay)” value [2]?
A: The value was “no toxicity”.

Q: What about the OD [5, 6] of the same compound?
A: The OD was 0.303.

Q: What about the OD [5, 7] of the same compound?
A: The OD was 0.303.

Q: What about the OD ([5]; phage ELISA, 5 μg/ml AchR, 4th and 5th round biopanning phages) of the same compound?
A: Its OD is 0.303.
